{
  "source": "paper PMC6934184",
  "about": "“Selective DNA-PKcs inhibition extends the therapeutic index of localized radiotherapy and chemotherapy” (The Journal of Clinical Investigation, 2019)",
  "target": "T1, ACVR1 (ALK2) (Homo sapiens, UniProt Q04771)",
  "T1 construct": "purchased Thermo Fisher Scientific (Life Technologies) SelectScreen",
  "T1 sequence (Q04771 21-509)": "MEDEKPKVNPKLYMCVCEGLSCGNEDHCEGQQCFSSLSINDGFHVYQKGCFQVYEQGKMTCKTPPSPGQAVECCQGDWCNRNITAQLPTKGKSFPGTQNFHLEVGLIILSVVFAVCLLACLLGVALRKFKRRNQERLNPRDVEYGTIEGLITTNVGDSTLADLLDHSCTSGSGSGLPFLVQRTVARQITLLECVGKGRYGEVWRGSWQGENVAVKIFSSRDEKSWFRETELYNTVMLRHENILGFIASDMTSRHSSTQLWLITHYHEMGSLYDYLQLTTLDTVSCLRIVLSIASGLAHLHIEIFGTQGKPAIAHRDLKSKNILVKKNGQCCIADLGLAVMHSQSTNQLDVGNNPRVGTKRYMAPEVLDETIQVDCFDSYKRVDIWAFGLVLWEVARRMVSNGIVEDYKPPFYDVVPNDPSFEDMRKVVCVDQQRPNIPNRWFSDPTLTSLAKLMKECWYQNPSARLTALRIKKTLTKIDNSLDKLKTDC",
  "experiment": "SelectScreen LanthaScreen",
  "format": "binding",
  "settings": "read-out: % displacement",
  "in_short": "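NU5455 was profiled across the SelectScreen Broad panel of kinase activity and binding assays. Z'LYTE reactions such as CSF1R ran at apparent Km ATP, while the Adapta CAMK1 assay used ATP listed as 10. Values are given as percent.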",
  "data": [
    {"smiles": "CN(C(=O)CN1CCOCC1)c1ccc2sc3c(-c4cccc5c(=O)cc(N6CC7CCC(C6)O7)oc45)cccc3c2c1", "note": "[NU5455]", "values": [
      {"measurement": "inhibition at 1 µM", "result": 0.7, "unit": "%"}
    ]}
  ]
}
